# Laboratory results reported in patent US20240391954A1, “MC4R AGONIST PEPTIDES” (The Regents of the University of Michigan, priority 2021, published 2024).
# Read-outs that look alike come from different tables or passages of the source. Positions of bridges follow the written chain, without caps; N, C: chain ends. Non-standard residues stand in square brackets, D forms with d. Residues, ends and D or L forms follow the SMILES beside them. dDip = N[C@@H](C(=O)O)C(c1ccccc1)c1ccccc1; dPhe(4-NH2) = Nc1ccc(C[C@@H](N)C(=O)O)cc1; Phe(4-Br) = N[C@@H](Cc1ccc(Br)cc1)C(=O)O; dPhe(4-Br) = N[C@H](Cc1ccc(Br)cc1)C(=O)O; 2Nal = N[C@@H](Cc1ccc2ccccc2c1)C(=O)O; d2Nal = N[C@H](Cc1ccc2ccccc2c1)C(=O)O; NMeR = CN[C@@H](CCCNC(=N)N)C(=O)O; Nle = CCCC[C@H](N)C(=O)O
# Legend:
# human MC3R = biological target: T1, human MC3R (Homo sapiens, UniProt P41968); assay: split-luciferase cAMP sensor assay, agonist mode (measurement window 1), hMC3R; type: cell-based; details: for Emax: read-out: MC3R cAMP % max activation; for EC50: read-out: MC3R cAMP EC50
# T1 construct: expressed in transfected cells; host or cells: HEK-293 cells stably expressing the GScAMP22F split-luciferase cAMP sensor (parent reporter line from Promega); MC3R clone generated in-house, G418 selection
# Experimental: (§1) The stable cell lines were grown and maintained in selection media consisting of Dulbecco's modified Eagle media (DMEM) with 4.5 g/l D-glucose, and 4 mM L-glutamine (Thermo Fisher Scientific, Waltham, MA), supplemented with 10% fetal bovine serum, 100 units/ml penicillin, 100 μg/ml streptomycin, 2.5 μg/ml amphotericin B, 200 μg/ml hygromycin B (for positive selection of the GScAMP22f luciferase reporter), and Geneticin™ (G418) 700 μg/ml (for MC3R or MC4R selection). Actual serum concentration during the assay is estimated to be about 1%. Cell line identity is routinely verified by qPCR and MC3R-and MC4R-specific oligonucleotides.
# (§2) The assay for the determination of the cAMP response in live cells was described previously. […] Cells were seeded at a density of 20,000 cells per well using 384-well poly-D lysine-coated, clear bottom, and black-wall assay plates (Corning Inc. Corning, NJ). Cells were allowed to attach to the plates for 18 to 24 h after which growth media was removed and 20 μl of 4% D-luciferin (Promega) in CO2 independent, serum-free medium (Thermo Fisher Scientific) was added to each well. […] Intracellular cAMP levels were measured using an FDSS 7000EX Functional Drug Screening System (Hamamatsu Photonics, Hamamatsu, Japan) in the Center for Chemical Genomics at the Life Sciences Institute. This instrument allowed the in-line addition of test-peptides and receptor agonists while simultaneously acquiring the luminescence signal from live cells. […] A submaximal forskolin (20 μM) concentration was also included to serve as a normalization reference to account for cell number variations and differences in assay transducer efficiency between cell lines.
# (§3) With this set up it was possible to evaluate the direct effect of the test-peptides on the MC3R and MC4R cell lines during measurement window 1, while the antagonist profile in the presence of EC90 α-MSH was determined on measurement window 2. […] EC50 or IC50 potency values were determined by non-linear regression by fitting the data to a sigmoid four-parameter variable slope model using the GraphPad Prism version 8.4 software package (San Diego CA).
# human MC4R = biological target: T2, human MC4R (Homo sapiens, UniProt P32245); assay: split-luciferase cAMP sensor assay, agonist mode (measurement window 1), hMC4R; type: cell-based; details: for Emax / EC50: agonist mode; for Emax: read-out: MC4R cAMP % max activation; for EC50: read-out: MC4R cAMP EC50
# T2 construct: host or cells: HEK-293 cells stably expressing the GScAMP22F split-luciferase cAMP sensor and hMC4R, G418 selection
# Experimental: as §1, §2, §3
# [1] = agonist mode, hMC3R stable cell line
# [2] = % maximal activation, agonist mode
# T2 sequence (P32245 whole entry): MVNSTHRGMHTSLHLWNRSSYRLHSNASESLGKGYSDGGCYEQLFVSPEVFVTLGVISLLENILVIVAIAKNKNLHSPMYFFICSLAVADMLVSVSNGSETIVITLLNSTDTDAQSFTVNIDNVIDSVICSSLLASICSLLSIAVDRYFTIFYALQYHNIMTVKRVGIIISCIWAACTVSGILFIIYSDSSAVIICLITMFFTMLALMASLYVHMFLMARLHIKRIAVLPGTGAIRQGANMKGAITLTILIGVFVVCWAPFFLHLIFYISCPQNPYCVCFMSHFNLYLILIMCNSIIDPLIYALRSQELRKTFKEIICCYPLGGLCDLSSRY
# T1 sequence (P41968 whole entry): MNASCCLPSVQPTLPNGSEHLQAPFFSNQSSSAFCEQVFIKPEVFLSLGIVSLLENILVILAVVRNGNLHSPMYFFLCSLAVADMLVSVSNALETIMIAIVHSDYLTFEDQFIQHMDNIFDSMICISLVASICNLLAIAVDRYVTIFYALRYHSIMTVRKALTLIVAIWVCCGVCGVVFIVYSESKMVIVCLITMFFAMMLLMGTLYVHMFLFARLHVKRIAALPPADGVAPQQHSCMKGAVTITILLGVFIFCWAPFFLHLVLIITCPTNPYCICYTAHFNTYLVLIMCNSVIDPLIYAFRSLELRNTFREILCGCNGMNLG
structure (smiles),measurement,setting,value
"CCCC[C@H](NC(=O)[C@H](CCCNC(=N)N)NC(C)=O)C(=O)N[C@H]1CSSC[C@@H](C(N)=O)NC(=O)[C@@H](Cc2c[nH]c3ccccc23)NC(=O)[C@H](CCCNC(=N)N)NC(=O)[C@@H](Cc2ccc(OC)cc2)NC(=O)[C@H](CCCNC(=N)N)NC1=O [CTX-1615, Arg-Nle-cyclo(Cys-Arg-D-Tyr(4-OMe)-Arg-D-Trp-Cys)] (Ac-R[Nle]CR[dY](Me)R[dW]C-NH2; disulfide 3-8)",Emax,human MC3R; [1],55%
same,EC50,human MC3R; [1],27 nM
same,MC4R selectivity vs MC1R,human MC4R,0.26
same,MC4R selectivity vs MC3R,human MC4R,2.14
same,Emax,human MC4R; hMC4R stable cell line,68%
same,EC50,human MC4R; hMC4R stable cell line,13 nM
"CC(=O)N[C@@H](CCCNC(=N)N)C(=O)N[C@H]1CSSC[C@@H](C(N)=O)NC(=O)[C@@H](Cc2c[nH]c3ccccc23)NC(=O)[C@H](CCCNC(=N)N)NC(=O)[C@@H](Cc2c[nH]c3ccccc23)NC(=O)[C@H](CCCNC(=N)N)NC(=O)[C@@H](C)NC1=O [CTX-1275, Arg-cyclo(Cys-D-Ala-Arg-D-Trp-Arg-D-Trp-Cys)] (Ac-RC[dA]R[dW]R[dW]C-NH2; disulfide 2-8 (inferred))",MC3R cAMP % max activation,human MC3R; [1],(3.3%)
same,EC50,human MC3R; [1],248 nM
same,MC4R selectivity vs MC1R,human MC4R,0.22
same,MC4R selectivity vs MC3R,human MC4R,0.27
same,Emax,human MC4R; hMC4R stable cell line,24%
same,EC50,human MC4R; hMC4R stable cell line,906 nM
"CC(=O)Nc1ccc(C[C@H]2NC(=O)[C@H](CCCNC(=N)N)NC(=O)[C@@H](C)NC(=O)[C@@H](NC(=O)[C@H](CCCNC(=N)N)NC(C)=O)CSSC[C@@H](C(N)=O)NC(=O)[C@@H](Cc3c[nH]c4ccccc34)NC(=O)[C@H](CCCNC(=N)N)NC2=O)cc1 [CTX-1245, Arg-cyclo(Cys-D-Ala-Arg-D-Phe(4-NH-Ac)-Arg-D-Trp-Cys)] (Ac-RC[dA]R[dPhe(4-NH2)](Ac)R[dW]C-NH2; disulfide 2-8)",Emax,human MC3R; [1],6.3%
same,Emax,human MC4R; hMC4R stable cell line,34%
"CCCC[C@H](NC(C)=O)C(=O)N[C@H]1CSSC[C@@H](C(=O)N[C@@H](CCCNC(=N)N)C(=O)N[C@@H](Cc2ccccc2)C(=O)NCC(N)=O)NC(=O)[C@@H](Cc2c[nH]c3ccccc23)NC(=O)[C@H](CCCNC(=N)N)NC(=O)[C@H](Cc2ccc3ccccc3c2)NC(=O)[C@H](Cc2c[nH]cn2)NC1=O [CTX-2128, Nle-cyclo(Cys-His-Nal(2′)-Arg-D-Trp-Cys)-Arg-Phe-Gly] (Ac-[Nle]CH[2Nal]R[dW]CRFG-NH2; disulfide 2-7 (inferred))",Emax,human MC3R; [2],99%
same,MC4R selectivity vs MC3R,human MC3R; MC4R versus MC3R,0.01
same,Emax,human MC4R; % maximal activation,87%
"CC(=O)N[C@@H](CCCNC(=N)N)C(=O)N[C@H]1CSSC[C@@H](C(N)=O)NC(=O)[C@@H](Cc2c[nH]c3ccccc23)NC(=O)[C@H](CCCNC(=N)N)NC(=O)[C@@H](Cc2ccc(Br)cc2)NC(=O)[C@H](CCCNC(=N)N)N(C)C(=O)[C@@H](C)NC1=O [CTX-1248, Arg-cyclo(Cys-D-Ala-NMe-Arg-D-Phe(4-Br)-Arg-D-Trp-Cys)] (Ac-RC[dA][NMeR][dPhe(4-Br)]R[dW]C-NH2; disulfide 2-8 (inferred))",Emax,human MC3R; [1],18%
same,EC50,human MC3R; [1],2.8 nM
same,MC4R selectivity vs MC1R,human MC4R,1.31
same,MC4R selectivity vs MC3R,human MC4R,1.36
same,Emax,human MC4R; hMC4R stable cell line,47%
same,EC50,human MC4R; hMC4R stable cell line,2 nM
"CC(=O)N[C@@H](CCCNC(=N)N)C(=O)N[C@H]1CSSC[C@@H](C(N)=O)NC(=O)[C@H](Cc2c[nH]c3ccccc23)NC(=O)[C@H](CCCNC(=N)N)NC(=O)[C@H](Cc2ccccc2)NC(=O)[C@H](Cc2c[nH]cn2)NC(=O)[C@@H](C)NC1=O [CTX-1213, Arg-cyclo(Cys-D-Ala-His-Phe-Arg-Trp-Cys)]",Emax,human MC3R; [2],97%
same,Emax,human MC4R; % maximal activation,104%
"CC(=O)N[C@@H](CCCNC(=N)N)C(=O)N[C@H]1CSSC[C@@H](C(=O)N[C@@H](CCCCN)C(N)=O)NC(=O)[C@@H](Cc2c[nH]c3ccccc23)NC(=O)[C@H](CCCNC(=N)N)NC(=O)[C@@H](Cc2ccc(Br)cc2)NC(=O)[C@H](CCCNC(=N)N)NC(=O)[C@@H](C)NC1=O [CTX-1218, Arg-cyclo(Cys-D-Ala-Arg-D-Phe(4-Br)-Arg-D-Trp-Cys)-Lys] (Ac-RC[dA]R[dPhe(4-Br)]R[dW]CK-NH2; disulfide 2-8)",Emax,human MC3R; [1],16%
same,EC50,"human MC3R; agonist mode, hMC3R stable cell line, unit inferred",4 nM
same,MC4R selectivity vs MC1R,human MC4R,1
same,MC4R selectivity vs MC3R,human MC4R,1.85
same,Emax,human MC4R; hMC4R stable cell line,77%
same,EC50,"human MC4R; hMC4R stable cell line, unit inferred",2.2 nM
CC(=O)N[C@@H](CCCNC(=N)N)C(=O)N[C@H]1CSSC[C@@H](C(=O)N[C@@H](CCCNC(=N)N)C(=O)N[C@@H](Cc2ccccc2)C(=O)NCC(=O)O)NC(=O)[C@@H](Cc2c[nH]c3ccccc23)NC(=O)[C@H](CCCNC(=N)N)NC(=O)[C@@H](Cc2ccc(Br)cc2)NC(=O)[C@H](CCCNC(=N)N)NC(=O)[C@@H](C)NC1=O [CTX-1219] (Ac-RC[dA]R[dPhe(4-Br)]R[dW]CRFG-OH; disulfide 2-8 (inferred)),Emax,human MC3R; [1],20%
same,EC50,human MC3R; [1],4.5 nM
same,MC4R selectivity vs MC1R,human MC4R,1
same,MC4R selectivity vs MC3R,human MC4R,1.99
same,Emax,human MC4R; hMC4R stable cell line,76%
same,EC50,human MC4R; hMC4R stable cell line,2.3 nM
"CC(=O)N[C@@H](CCCNC(=N)N)C(=O)N[C@H]1CSSC[C@@H](C(N)=O)NC(=O)[C@@H](Cc2c[nH]c3ccccc23)NC(=O)[C@H](CCCNC(=N)N)NC(=O)[C@H](Cc2ccc(Br)cc2)NC(=O)[C@H](CCCNC(=N)N)NC(=O)[C@@H](C)NC1=O [CTX-1215, Arg-cyclo(Cys-D-Ala-Arg-Phe(4-Br)-Arg-D-Trp-Cys)] (Ac-RC[dA]R[Phe(4-Br)]R[dW]C-NH2; disulfide 2-8 (inferred))",Emax,human MC3R; [1],2.1%
same,EC50,human MC3R; [1],27 nM
same,MC4R selectivity vs MC1R,human MC4R,0.07
same,MC4R selectivity vs MC3R,human MC4R,0.05
same,Emax,human MC4R; hMC4R stable cell line,56%
"CC(=O)N[C@@H](CCCNC(=N)N)C(=O)N[C@H]1CSSC[C@@H](C(N)=O)NC(=O)[C@@H](Cc2c[nH]c3ccccc23)NC(=O)[C@H](CCCNC(=N)N)NC(=O)[C@@H](C(c2ccccc2)c2ccccc2)NC(=O)[C@H](CCCNC(=N)N)NC(=O)[C@@H](C)NC1=O [CTX-1280, Arg-cyclo(Cys-D-Ala-Arg-D-Dip-Arg-D-Trp-Cys)] (Ac-RC[dA]R[dDip]R[dW]C-NH2; disulfide 2-8 (inferred))",Emax,human MC3R; [1],2.6%
same,MC4R selectivity vs MC1R,human MC4R,0.1
same,MC4R selectivity vs MC3R,human MC4R,1.24
same,Emax,human MC4R; hMC4R stable cell line,4%
"CC(=O)N[C@@H](CCCNC(=N)N)C(=O)N[C@H]1CSSC[C@@H](C(N)=O)NC(=O)[C@@H](Cc2ccc3ccccc3c2)NC(=O)[C@H](CCCNC(=N)N)NC(=O)[C@@H](Cc2ccc(Br)cc2)NC(=O)[C@H](CCCNC(=N)N)NC(=O)[C@@H](C)NC1=O [CTX-1254, Arg-cyclo(Cys-D-Ala-Arg-D-Phe(4-Br)-Arg-D-Nal(2′)-Cys)] (Ac-RC[dA]R[dPhe(4-Br)]R[d2Nal]C-NH2; disulfide 2-8)",Emax,human MC3R; [1],5.5%
same,MC4R selectivity vs MC1R,human MC4R,0.26
same,MC4R selectivity vs MC3R,human MC4R,2.19
same,Emax,human MC4R; hMC4R stable cell line,22%
"CC(=O)N[C@@H](CCCNC(=N)N)C(=O)N[C@H]1CSSC[C@@H](C(=O)N[C@@H](CCCCN)C(=O)N2CCC[C@H]2C(=O)N[C@H](C(N)=O)C(C)C)NC(=O)[C@@H](Cc2c[nH]c3ccccc23)NC(=O)[C@H](CCCNC(=N)N)NC(=O)[C@@H](Cc2ccc(Br)cc2)NC(=O)[C@H](CCCNC(=N)N)NC(=O)[C@@H](C)NC1=O [CTX-1216, Arg-cyclo(Cys-D-Ala-Arg-D-Phe(4-Br)-Arg-D-Trp-Cys)-Lys-Pro-Val] (Ac-RC[dA]R[dPhe(4-Br)]R[dW]CKPV-NH2; disulfide 2-8 (inferred))",Emax,human MC3R; [1],11%
same,EC50,human MC3R; [1],3.5 nM
same,MC4R selectivity vs MC1R,human MC4R,0.82
same,MC4R selectivity vs MC3R,human MC4R,1.99
same,Emax,human MC4R; hMC4R stable cell line,69%
same,EC50,human MC4R; hMC4R stable cell line,1.8 nM
"CC(=O)N[C@H]1CSSC[C@@H](C(N)=O)NC(=O)[C@H](Cc2ccccc2)NC(=O)[C@H](CCCNC(=N)N)NC(=O)[C@@H](Cc2ccc(Br)cc2)NC(=O)[C@H](CCCNC(=N)N)NC(=O)CNC1=O [CTX-1640, cyclo(Cys-Gly-Arg-D-Phe(4-Br)-Arg-Phe-Cys)] (Ac-CGR[dPhe(4-Br)]RFC-NH2; disulfide 1-7 (inferred))",Emax,human MC3R; [1],27%
same,EC50,human MC3R; [1],10 nM
same,MC4R selectivity vs MC1R,human MC4R,3.72
same,MC4R selectivity vs MC3R,human MC4R,3.09
same,Emax,human MC4R; hMC4R stable cell line,100%
